Assay results as given in US12565504B2, “Spirocyclic O-glycoprotein-2-acetamido-2-deoxy-3-d-glucopyranosidase inhibitors” (BIOGEN MA INC., priority 2019, dated 2026).

Key:
P-gp (MDR1) = test: MDR1-MDCK Efflux Ratio Assay; format: in vitro ADME; details: dog, MDR1-MDCK cells, pH 7.4, read-out: MDR1-MDCK Efflux Ratio (B-A/A-B)
Experimental: MDR1-MDCK cell monolayers were grown to confluence on microporous polyester membranes in 96-well Corning insert plates. The permeability assay buffer was Hanks' Balanced Salt Solution containing 10 mM HEPES at pH of 7.4. Loperamide (1 μM) was used as a positive control P-gp substrate. Propranolol and Bestatin (1 μM) were used as high and low permeability comparators, respectively.
Test compounds or positive control P-gp substrate/permeability comprators were added to respective apical and basolateral chambers for bidirectional assessment of permeability. Receiver buffer (transport buffer supplemented with 1% bovine serum albumin) was added to respective receiver chambers. MDR1-MDCK cells were incubated with test compounds at 37° C. with 5% CO2 for 2 hr. Samples were collected from the donor chamber at both 0 and 120 minutes, and from the receiver chamber at 120 minutes. Test and control compound concentrations were determined using LC-MS/MS analysis. Each determination was performed in triplicate.

OGA (S400 O-GLCNAC) = OGA (S400 O-GLCNAC) (Homo sapiens (Human), UniProt O60502); test: Cellular OGA-Tau MSD Assay; format: cell-based; details: HEK-293T cells transfected with OGT and Tau-V5; Tau-S400-GlcNAc MSD readout
Chain of OGA (S400 O-GLCNAC) (O60502 whole entry): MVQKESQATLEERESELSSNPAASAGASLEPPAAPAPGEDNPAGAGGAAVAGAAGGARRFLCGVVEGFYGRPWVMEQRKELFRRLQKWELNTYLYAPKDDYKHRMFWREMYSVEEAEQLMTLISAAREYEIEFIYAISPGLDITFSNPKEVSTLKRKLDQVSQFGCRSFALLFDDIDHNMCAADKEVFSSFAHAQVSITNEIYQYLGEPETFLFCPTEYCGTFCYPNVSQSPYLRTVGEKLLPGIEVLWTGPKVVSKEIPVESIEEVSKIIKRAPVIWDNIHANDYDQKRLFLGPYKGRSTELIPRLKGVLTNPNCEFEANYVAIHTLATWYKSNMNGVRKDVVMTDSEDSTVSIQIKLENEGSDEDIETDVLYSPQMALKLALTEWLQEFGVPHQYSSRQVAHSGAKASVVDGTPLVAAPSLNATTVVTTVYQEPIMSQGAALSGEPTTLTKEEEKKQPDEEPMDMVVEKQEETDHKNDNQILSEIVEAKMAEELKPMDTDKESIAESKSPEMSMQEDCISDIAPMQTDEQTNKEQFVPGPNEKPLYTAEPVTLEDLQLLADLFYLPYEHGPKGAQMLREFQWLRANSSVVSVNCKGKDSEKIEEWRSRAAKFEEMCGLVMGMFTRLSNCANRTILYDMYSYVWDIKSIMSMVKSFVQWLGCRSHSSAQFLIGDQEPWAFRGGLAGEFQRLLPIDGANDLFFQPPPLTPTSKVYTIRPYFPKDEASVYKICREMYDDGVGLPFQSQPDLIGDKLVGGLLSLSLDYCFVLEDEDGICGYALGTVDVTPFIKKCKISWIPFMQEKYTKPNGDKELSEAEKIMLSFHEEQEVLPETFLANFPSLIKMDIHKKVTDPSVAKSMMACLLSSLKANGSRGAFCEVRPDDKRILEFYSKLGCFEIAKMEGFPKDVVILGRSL
Experimental: HEK-293T cells were transfected with OGT and Tau-V5 plasmids using Lipofectamine and grown overnight. Next day, the cells were collected and re-plated at 1×10^5 cells per well in 96 well plates. Cells were incubated for 4 hr at 37° C., before compounds were added at 1 uM, with 3-fold dilutions in a 10-point titration. Cell plates were incubated with compounds overnight at 37° C. The next day media was removed from wells by gentle aspiration and 120 ul of 1× Cell Lysis buffer mixed with protease and phosphatase cocktail added to each well. A freeze thaw was performed at −80° C., then mixed before transferring 50 μl to MSD plates coated with V5-tag antibody to capture Tau. MSD Plates were incubated overnight at 4° C., on a plate shaker. The following day, plates were washed and incubated with Tau-S400-GlcNAc antibody for 2 hr and then developed with rabbit Sulfo-tag antibody. Final read out was carried out on an MSD 600 reader. The data was analyzed using Graph Pad or Genedata, the data was normalized and % activity versus log of compound concentration was plotted. The ICso values were obtained from a 4 parameter fit.

[1] = target: Recombinant full length human OGA enzyme (Homo sapiens (Human), UniProt O60502); test: OGA Enzyme Inhibition Biochemical Assay; details: 1 nM OGA, 100 μM 4-MUGlcNAc, 90 minutes, pH 6.4
Chain of Recombinant full length human OGA enzyme (O60502 whole entry): as above
Experimental: Recombinant full length human OGA enzyme was purchased from Origene. 4-MUGlcNAc substrate was purchased from Sigma. All other reagents were purchased from Sigma or Fisher. Assay buffer consists of the McIlvaine buffer system, pH 6.4 (0.2M Na2HPO4 mixed with 0.1M citric acid) and 0.01% BSA. […] Reactions were incubated for 90 minutes at room temperature and quenched with 40 μl of 3M glycine, pH 10 and read on a Perkin Elmer Envision plate reader (Ex: 355 nm/Em: 460 nm). Compounds were tested with a 10-point dose-response starting from 20 μM with a 4-fold dilution. Data was fit using GraphPad Prism using a 4-parameter fit with variable slope.

[2] = Rat Liver Microsome Stability Assay; details: rat liver microsomes 0.5 mg/mL, compound 1 μM; Qh 55 mL/minute/kg
Experimental: Aliquots (40 uL) at 0, 5, 10, 15, 25 and 40 minutes post NADPH addition (or compound addition for reactions in absence of NADPH) were transferred into individual 96-well plate wells containing 40 ng/ml of 8-cyclopently-1,3-dipropylxanthine (CPDPX, internal standard) in 160 uL acetonitrile:methanol (1:1 v/v).
The LC/MS/MS system consisted of an ultra high throughput RapidFire® 300 system (Agilent Technologies, Santa Clara, CA) coupled to a Triple Quad 5500 mass spectrometer (ABSciex, Foster City, CA). Sample load and wash were performed on a RapidFire® C4 cartridge using 0.1% formic acid in water as mobile phase A and sample elution using 0.1% formic acid in acetonitrile:methanol (1:1 v/v) as mobile phase B.
CLint, app (apparent intrinsic clearance) was calculated using the following equation for microsome stability.
[formula] • where “a” represents 45 grams of liver/kg of body weight for rat. • CLint,app (apparent intrinsic clearance) was calculated using the following equation for hepatocyte stability: • CLhep (hepatic clearance) was calculated using the following equation for microsomes
[formula] • using 55 mL/minute/kg as Qh (hepatic blood flow) for rat.

SMILES | efflux ratio at 2 hr (P-gp (MDR1)) | IC50 (OGA (S400 O-GLCNAC)) | IC50 [1] | RLM % Qh (%) [2] | efflux ratio at 2 h (P-gp (MDR1))
CC(=O)Nc1nc(F)c(CN2C[C@@]3(Cc4cc(N5CCOCC5)ncc4O3)C[C@@H]2C)s1 [Example 36, N-(4-Fluoro-5-(((2R,5′S)-5′-methyl-5-morpholino-3H-spiro[furo[2,3-c]pyridine-2,3′-pyrrolidin]-1′-yl)methyl)thiazol-2-yl)acetamide] | 9.3 | 8 nM | < 1 nM | 51% | 
CC(=O)Nc1ncc(CN2CC3(C[C@@H]2C)OCc2ccccc23)s1 (stereo partly drawn) [Example 59, N-(5-(((5′S)-5′-Methyl-3H-spiro[isobenzofuran-1,3′-pyrrolidin]-1′-yl)methyl)thiazol-2-yl)acetamide] | 3.5 | 16 nM | 9 nM | 94% | 
CC(=O)Nc1ncc(CN2C[C@@]3(Cc4cc(N5C[C@@H](C)O[C@@H](C)C5)ncc4O3)C[C@@H]2C)s1 [Example 38, N-(5-(((2R,5′S)-5-((2R,6S)-2,6-Dimethylmorpholino)-5′-methyl-3H-spiro[furo[2,3-c]pyridine-2,3′-pyrrolidin]-1′-yl)methyl)thiazol-2-yl)acetamide] | 29.5 | 9.9 nM | 1.2 nM | 42% | 
CC(=O)Nc1nc(F)c(CN2C[C@@]3(Cc4cc(C5CC5)ncc4O3)C[C@@H]2C)s1 [Example 24, N-(5-(((2R,5′S)-5-Cyclopropyl-5′-methyl-3H-spiro[furo[2,3-c]pyridine-2,3′-pyrrolidin]-1′-yl)methyl)-4-fluorothiazol-2-yl)acetamide] | 6.5 | 12 nM | 1 nM | 75% | 
CC(=O)Nc1nc(F)c(CN2CCCC3(C2)OCc2c3cc[nH]c2=O)s1 (stereo not drawn) [Example 86, N-(4-Fluoro-5-((4-oxo-4,5-dihydro-3H-spiro[furo[3,4-c]pyridine-1,3′-piperidin]-1′-yl)methyl)thiazol-2-yl)acetamide] | 32.6 | 138 nM | 14.5 nM | 37% | 
COc1cc2c(cn1)[C@]1(C[C@H](C)N(Cc3cnc(NC(C)=O)s3)C1)OC2 (single isomer, unassigned) [Example 76-a] | 17.7 | 62 nM | 55 nM | 58% | 
COCCOc1cc2c(cn1)O[C@]1(C2)C[C@H](C)N(Cc2sc(NC(C)=O)nc2F)C1 [Example 47, N-(4-Fluoro-5-(((2R,5′S)-5-(2-methoxyethoxy)-5′-methyl-3H-spiro[furo[2,3-c]pyridine-2,3′-pyrrolidin]-1′-yl)methyl)thiazol-2-yl)acetamide] | 9.2 | 9 nM | < 1 nM | 53% | 
CC(=O)Nc1nc(F)c(CN2C[C@@]3(Cc4ncccc4O3)C[C@@H]2C)s1 (single isomer, unassigned) [Example 19-a] | 14 | 5 nM | 1 nM | 62% | 
CC(=O)Nc1ncc(CN2CCCC3(C2)OCc2cnccc23)s1 (stereo not drawn) [Example 68, N-(5-((3H-Spiro[furo[3,4-c]pyridine-1,3′-piperidin]-1′-yl)methyl)thiazol-2-yl)acetamide] | 10.7 | 18 nM | 6 nM | 84% | 
COc1cc2c(cn1)[C@]1(C[C@H](C)N(Cc3sc(NC(C)=O)nc3F)C1)OC2 (single isomer, unassigned) [Example 75-a] |  | 40 nM |  | 59% | 7.8
CC(=O)Nc1ncc(CN2C[C@@]3(Cc4cc(C(F)F)ncc4O3)C[C@@H]2C)s1 [Example 27, N-(5-(((2R,5′S)-5-(Difluoromethyl)-5′-methyl-3H-spiro[furo[2,3-c]pyridine-2,3′-pyrrolidin]-1′-yl)methyl)thiazol-2-yl)acetamide] |  | 16 nM | 11 nM |  | 
CC(=O)Nc1nc(F)c(CN2CC3(Cc4nc(O)cnc4O3)C[C@@H]2C)s1 (stereo partly drawn) [Example 51, N-(4-fluoro-5-(((5′S)-2-hydroxy-5′-methyl-7H-spiro[furo[2,3-b]pyrazine-6,3′-pyrrolidin]-1′-yl)methyl)thiazol-2-yl)acetamide] |  | 59 nM | 91 nM |  | 
CC(=O)Nc1nc(F)c(CN2C[C@@]3(Cc4cc(C)ncc4O3)C[C@@H]2C)s1 [Example 23, N-(5-(((2R,5′S)-5,5′-Dimethyl-3H-spiro[furo[2,3-c]pyridine-2,3′-pyrrolidin]-1′-yl)methyl)-4-fluorothiazol-2-yl)acetamide] |  | 13 nM | 1 nM |  | 
COc1cc2c(cn1)[C@@]1(C[C@H](C)N(Cc3sc(NC(C)=O)nc3F)C1)OC2 (single isomer, unassigned) [Example 75-b] |  | 24 nM |  | 89% | 5.4
CC(=O)Nc1nc(F)c(CN2C[C@@]3(Cc4cc(NC(C)C)ncc4O3)C[C@@H]2C)s1 [Example 30, N-(4-Fluoro-5-(((2R,5′S)-5-(isopropylamino)-5′-methyl-3H-spiro[furo[2,3-c]pyridine-2,3′-pyrrolidin]-1′-yl)methyl)thiazol-2-yl)acetamide] |  | 8 nM | < 1 nM |  | 
CC(=O)Nc1ncc(CN2CCCC3(C2)OCc2cncnc23)s1 (stereo not drawn) [Example 89, N-(5-((5H-Spiro[furo[3,4-d]pyrimidine-7,3′-piperidin]-1′-yl)methyl)thiazol-2-yl)acetamide] |  | 84.6 nM | 67.9 nM |  | 
CC(=O)Nc1ncc(CN2CCCC3(C2)OCc2c3cc[nH]c2=O)s1 (stereo not drawn) [Example 87, N-(5-((4-Oxo-4,5-dihydro-3H-spiro[furo[3,4-c]pyridine-1,3′-piperidin]-1′-yl)methyl)thiazol-2-yl)acetamide] |  | 54.3 nM | 35 nM |  | 
CC(=O)Nc1ncc(CN2CCC3(C2)OCc2cnccc23)s1 (stereo not drawn) [Example 66, N-(5-((3H-Spiro[furo[3,4-c]pyridine-1,3′-pyrrolidin]-1′-yl)methyl)thiazol-2-yl)acetamide] |  | 794 nM | 210 nM |  | 
CC(=O)Nc1nc(F)c(CN2C[C@@]3(C[C@@H]2C)OCc2cnccc23)s1 (single isomer, unassigned) [Example 64-a] |  | 118 nM | 10 nM |  | 
CC(=O)Nc1nc(F)c(CN2CCC[C@@]3(C2)OCc2cnccc23)s1 (single isomer, unassigned) [Example 70-a] |  | 8.4 nM | 1.4 nM |  | 
COCCN(C)c1cc2c(cn1)O[C@]1(C2)C[C@H](C)N(Cc2cnc(NC(C)=O)s2)C1 [Example 32, N-(5-(((2R,5′S)-5-((2-Methoxyethyl)(methyl)amino)-5′-methyl-3H-spiro[furo[2,3-c]pyridine-2,3′-pyrrolidin]-1′-yl)methyl)thiazol-2-yl)acetamide] |  | 7 nM | < 1 nM |  | 
CC(=O)Nc1nc(F)c(CN2C[C@@]3(Cc4cc(N(C)C)ncc4O3)C[C@@H]2C)s1 [Example 28, N-(5-(((2R,5′S)-5-(Dimethylamino)-5′-methyl-3H-spiro[furo[2,3-c]pyridine-2,3′-pyrrolidin]-1′-yl)methyl)-4-fluorothiazol-2-yl)acetamide] |  | 1 nM | < 1 nM |  | 
CC(=O)Nc1ncc(CN2C[C@@]3(Cc4cc(C5CC5)ncc4O3)C[C@@H]2C)s1 [Example 25, N-(5-(((2R,5′S)-5-Cyclopropyl-5′-methyl-3H-spiro[furo[2,3-c]pyridine-2,3′-pyrrolidin]-1′-yl)methyl)thiazol-2-yl)acetamide] |  | 23 nM | 6 nM |  | 
